Earlier results on three compounds are cited in patent US12552784B2, “1H-pyrrolo[2,3-b]pyridine derivatives as BCL-2 inhibitors for the treatment of neoplastic and autoimmune diseases” (priority 2019, dated 2026).

In one series the test system is CLL. The following applies: average; read-out: EC50 apoptosis in CLL.
Another series deals with RS4;11 xenografts. The settings on record: single dose of 100 mg/kg.
Another series has as its system DoHH2. The settings on record: single agent or in combination with Bendamustine and other agents.
The test system of another series is Granta-519. The settings on record: single agent or in combination with Bendamustine and other agents.
In series [1] the test system is CLL who have 17p deletion. The following applies: Human Phase I and II.
A further series addresses T1, Bcl-w (Homo sapiens, UniProt Q92843).
T1 sequence (Q92843 1-193): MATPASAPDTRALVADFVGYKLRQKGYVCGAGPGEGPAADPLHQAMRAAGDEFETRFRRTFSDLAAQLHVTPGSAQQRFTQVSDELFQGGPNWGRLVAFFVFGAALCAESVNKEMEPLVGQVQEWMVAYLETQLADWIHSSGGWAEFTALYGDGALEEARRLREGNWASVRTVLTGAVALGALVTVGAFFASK

Another series relates to SCLC H146 cell line. The following applies: read-out: IC50 against SCLC H146 cell line.
The next series has as its system H345 xenograft model. The following applies: 100 mg/kg/day.
The next series has as its system small-cell lung cancer. The settings on record: oral administration alone.
Series [2] has as its system acute lymphoblastic leukemia. The following applies: oral administration alone.
For series [3] the following is noted: in vivo.
A further series deals with established tumors. The settings on record: animal models.

pEC50, pIC50, pKi: −log10 of the molar value. Bounds are passed on as bounds.

`CC1(C)CCC(CN2CCN(c3ccc(C(=O)NS(=O)(=O)c4ccc(NCC5CCOCC5)c([N+](=O)[O-])c4)c(Oc4cnc5[nH]ccc5c4)c3)CC2)=C(c2ccc(Cl)cc2)C1` [ABT-199]: the figures for the pEC50 in the series on RS4;11 cells and with CLL were 8.10 and 8.52, respectively. Also, the “apoptosis in RS4;11 cells” value in the series on RS4;11 cells (with cytochrome c release, caspase activation, accumulation of sub-G0/G1 DNA) was “rapid apoptosis”. Moreover, the “maximal tumor growth inhibition” value with RS4;11 xenografts is reported as 95%. In addition, the tumor growth delay in the series on RS4;11 xenografts was 152%. For the same compound, the xenograft growth entry in the series on DoHH2 and with Granta-519 was “inhibits xenograft growth” in each case. Moreover, in series [1], the clinical efficacy entry is reported as “highly efficacious”.

On to `CC1(C)CCC(c2ccc(Cl)cc2)=C(CN2CCN(c3ccc(C(=O)NS(=O)(=O)c4ccc(N[C@H](CCN5CCOCC5)CSc5ccccc5)c(S(=O)(=O)C(F)(F)F)c4)cc3)CC2)C1` [ABT-263], for which the pKi at Bcl-w is at least 9.00. Further, in the series with SCLC H146 cell line, the pIC50 is 6.96. The TGI with H345 xenograft model was 80%. In addition, the “treated tumors indicating at least a 50% reduction in tumor volume” value in the series with H345 xenograft model is 20%. In addition, the tumor regression result (in the series on small-cell lung cancer; in series [2]) was “complete tumor regressions” in each case. Also, in the series on circulating platelets (clinical trial), the “number of circulating platelets” value is “rapid, concentration-dependent decrease”. Also, in the series with circulating platelets (single-agent treatment in patients), the dose-limiting toxicity result is “mechanism-based thrombocytopenia”. In [3], the oral bioavailability result is listed as “orally bioavailable”.

`CN(C)CC[C@H](CSc1ccccc1)Nc1ccc(S(=O)(=O)NC(=O)c2ccc(N3CCN(Cc4ccccc4-c4ccc(Cl)cc4)CC3)cc2)cc1[N+](=O)[O-]` [ABT-737]: the aqueous solubility result was “low aqueous solubility”. Further, in [3], the oral bioavailability result was “not orally bioavailable”. Further, in the series with established tumors, the cures entry is reported as “produces cures in a high percentage of the mice”, the survival entry is listed as “improves survival” and the tumor regression entry is “causes regression of established tumors”.

Broadly, the pEC50 is the negative decadic logarithm of the EC50, by convention in mol/L. What is called pKi is the Ki on a negative log10 scale, so that one unit is a factor of ten. One may read the pIC50 as the IC50 on a negative log10 scale, so that one unit is a factor of ten. In general, TGI refers to the reduction of tumour growth relative to the control group.
